# Laboratory results published in US10689367B2, “Triazole pyridyl compounds as agonists of the APJ receptor” (AMGEN INC., priority 2016, dated 2020).
# Target: human APJ receptor (Homo sapiens (Human), UniProt P35414)
# Experiment: [35S]GTPγS binding assay on membranes from CHO cells stably expressing human APJ receptor
# Assay type: biochemical
# Conditions: membranes of CHO cells stably expressing human APJ receptor, read-out: Activity hAPJ SPA EC50 IP
# Outline: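 [35S]GTPγS binding measured on membranes from CHO cells stably expressing FLAG-tagged human APJ, with GDP, MgCl2 and NaCl levels optimized beforehand. Incubation 90 min at RT, imager read-out; EC50 from non-linear regression, averaged over several independent experiments.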
# Sequence of human APJ receptor (P35414 whole entry): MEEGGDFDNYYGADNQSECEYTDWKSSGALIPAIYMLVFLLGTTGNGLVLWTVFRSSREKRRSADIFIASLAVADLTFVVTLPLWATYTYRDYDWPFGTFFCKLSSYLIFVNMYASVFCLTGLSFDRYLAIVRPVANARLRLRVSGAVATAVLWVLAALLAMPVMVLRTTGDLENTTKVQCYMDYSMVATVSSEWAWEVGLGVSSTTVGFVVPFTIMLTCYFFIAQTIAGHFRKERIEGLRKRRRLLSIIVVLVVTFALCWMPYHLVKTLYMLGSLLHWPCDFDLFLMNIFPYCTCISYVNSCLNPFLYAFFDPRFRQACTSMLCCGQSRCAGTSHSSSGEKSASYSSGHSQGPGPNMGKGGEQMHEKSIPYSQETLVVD
row,Compound,EC50
1,"COc1cccc(-c2nnc(NS(=O)(=O)[C@@H](C)[C@H](OC)c3ncc(Cl)cn3)n2[C@@H](C)c2ncc(C)o2)n1 (single isomer, unassigned) [Example 256.0, (1R,2S)-1-(5-chloro-2-pyrimidinyl)-1-methoxy-N-(5-(6-methoxy-2-pyridinyl)-4-((1S)-1-(5-methyl-1,3-oxazol-2-yl)ethyl)-4H-1,2,4-triazol-3-yl)-2-propanesulfonamide or (1R,2S)-1-(5-chloro-2-pyrimidinyl)-1-methoxy-N-(5-(6-methoxy-2-pyridinyl)-4-((1R)-1-(5-methyl-1,3-oxazol-2-yl)ethyl)-4H-1,2,4-triazol-3-yl)-2-propanesulfonamide]",0.48 nM
2,"COc1cccc(-c2nnc(NS(=O)(=O)[C@@H](C)[C@H](C)c3ncc(Cl)cn3)n2[C@@H](C)c2ncc(C)o2)n1 (single isomer, unassigned) [Example 257.0, (2S,3R)-3-(5-chloro-2-pyrimidinyl)-N-(5-(6-methoxy-2-pyridinyl)-4-((1S)-1-(5-methyl-1,3-oxazol-2-yl)ethyl)-4H-1,2,4-triazol-3-yl)-2-butanesulfonamide or (2S,3R)-3-(5-chloro-2-pyrimidinyl)-N-(5-(6-methoxy-2-pyridinyl)-4-((1R)-1-(5-methyl-1,3-oxazol-2-yl)ethyl)-4H-1,2,4-triazol-3-yl)-2-butanesulfonamide]",16 nM
3,"COc1cccc(-c2nnc(NS(=O)(=O)[C@@H](C)[C@H](C)c3ncc(Cl)cn3)n2[C@@H](C)c2ncc(C)o2)n1 (single isomer, unassigned) [Example 258.0, (2S,3R)-3-(5-chloro-2-pyrimidinyl)-N-(5-(6-methoxy-2-pyridinyl)-4-((1S)-1-(5-methyl-1,3-oxazol-2-yl)ethyl)-4H-1,2,4-triazol-3-yl)-2-butanesulfonamide or (2S,3R)-3-(5-chloro-2-pyrimidinyl)-N-(5-(6-methoxy-2-pyridinyl)-4-((1R)-1-(5-methyl-1,3-oxazol-2-yl)ethyl)-4H-1,2,4-triazol-3-yl)-2-butanesulfonamide]",0.88 nM
4,"COc1cccc(-c2nnc(NS(=O)(=O)[C@@H](C)[C@@H](OC(C)C)c3ncc(C)cn3)n2[C@@H](C)c2noc(C)n2)n1 (single isomer, unassigned) [Example 259.0, (1S,2S)-N-(5-(6-methoxy-2-pyridinyl)-4-((1R)-1-(5-methyl-1,2,4-oxadiazol-3-yl)ethyl)-4H-1,2,4-triazol-3-yl)-1-(5-methyl-2-pyrimidinyl)-1-(2-propanyloxy)-2-propanesulfonamide or (1S,2S)-N-(5-(6-methoxy-2-pyridinyl)-4-((1S)-1-(5-methyl-1,2,4-oxadiazol-3-yl)ethyl)-4H-1,2,4-triazol-3-yl)-1-(5-methyl-2-pyrimidinyl)-1-(2-propanyloxy)-2-propanesulfonamide]",8.7 nM
5,"COc1cccc(-c2nnc(NS(=O)(=O)[C@@H](C)[C@H](OC)c3ncc(Cl)cn3)n2[C@@H](C)c2ccon2)n1 (single isomer, unassigned) [Example 264.0, (1R,2S)-1-(5-chloro-2-pyrimidinyl)-1-methoxy-N-(5-(6-methoxy-2-pyridinyl)-4-((1R)-1-(1,2-oxazol-3-yl)ethyl)-4H-1,2,4-triazol-3-yl)-2-propanesulfonamide or (1R,2S)-1-(5-chloro-2-pyrimidinyl)-1-methoxy-N-(5-(6-methoxy-2-pyridinyl)-4-((1S)-1-(1,2-oxazol-3-yl)ethyl)-4H-1,2,4-triazol-3-yl)-2-propanesulfonamide]",2.9 nM
6,"COc1cccc(-c2nnc(NS(=O)(=O)[C@@H](C)[C@H](OC)c3ncc(Cl)cn3)n2[C@@H](C)c2ccon2)n1 (single isomer, unassigned) [Example 265.0, (1R,2S)-1-(5-chloro-2-pyrimidinyl)-1-methoxy-N-(5-(6-methoxy-2-pyridinyl)-4-((1R)-1-(1,2-oxazol-3-yl)ethyl)-4H-1,2,4-triazol-3-yl)-2-propanesulfonamide or (1R,2S)-1-(5-chloro-2-pyrimidinyl)-1-methoxy-N-(5-(6-methoxy-2-pyridinyl)-4-((1S)-1-(1,2-oxazol-3-yl)ethyl)-4H-1,2,4-triazol-3-yl)-2-propanesulfonamide]",0.92 nM
7,"COc1cccc(-c2nnc(NS(=O)(=O)[C@@H](C)[C@@H](OC(C)C)c3ncc(C)cn3)n2[C@@H](C)c2ccon2)n1 (single isomer, unassigned) [Example 269.0, (1S,2S)-1-isopropoxy-N-(4-((R)-1-(isoxazol-3-yl)ethyl)-5-(6-methoxypyridin-2-yl)-4H-1,2,4-triazol-3-yl)-1-(5-methylpyrimidin-2-yl)propane-2-sulfonamide or (1S,2S)-1-isopropoxy-N-(4-((S)-1-(isoxazol-3-yl)ethyl)-5-(6-methoxypyridin-2-yl)-4H-1,2,4-triazol-3-yl)-1-(5-methylpyrimidin-2-yl)propane-2-sulfonamide]",17 nM
8,"COc1cccc(-c2nnc(NS(=O)(=O)[C@@H](C)[C@@H](OC(C)C)c3ncc(C)cn3)n2[C@@H](C)c2ccon2)n1 (single isomer, unassigned) [Example 270.0, (1S,2S)-1-isopropoxy-N-(4-((R)-1-(isoxazol-3-yl)ethyl)-5-(6-methoxypyridin-2-yl)-4H-1,2,4-triazol-3-yl)-1-(5-methylpyrimidin-2-yl)propane-2-sulfonamide or (1S,2S)-1-isopropoxy-N-(4-((S)-1-(isoxazol-3-yl)ethyl)-5-(6-methoxypyridin-2-yl)-4H-1,2,4-triazol-3-yl)-1-(5-methylpyrimidin-2-yl)propane-2-sulfonamide]",5.1 nM
9,"COc1cccc(-c2nnc(NS(=O)(=O)[C@@H](C)[C@@H](OC(C)C)c3ncc(C)cn3)n2[C@@H](C)[C@H]2CCCO2)n1 (single isomer, unassigned) [Example 273.0]",23 nM
10,"COc1cccc(-c2nnc(NS(=O)(=O)[C@@H](C)[C@@H](OC(C)C)c3ncc(C)cn3)n2[C@@H](C)[C@H]2CCCO2)n1 (single isomer, unassigned) [Example 274.0]",2.2 nM
11,"COc1cccc(-c2nnc(NS(=O)(=O)[C@@H](C)[C@@H](OC(C)C)c3ncc(C)cn3)n2[C@@H](C)[C@H]2CCCO2)n1 (single isomer, unassigned) [Example 275.0]",18 nM
12,"COc1cccc(-c2nnc(NS(=O)(=O)[C@@H](C)[C@@H](OC(C)C)c3ncc(C)cn3)n2[C@@H](C)[C@H]2CCCO2)n1 (single isomer, unassigned) [Example 276.0]",1.3 nM
13,"COc1cccc(-c2nnc(NS(=O)(=O)[C@@H](C)[C@H](OC)c3ncc(Cl)cn3)n2C[C@H]2CCCO2)n1 (single isomer, unassigned) [Example 279.0, (1R,2S)-1-(5-chloropyrimidin-2-yl)-1-methoxy-N-(5-(6-methoxypyridin-2-yl)-4-(((R)-tetrahydrofuran-2-yl)methyl)-4H-1,2,4-triazol-3-yl)propane-2-sulfonamide or (1R,2S)-1-(5-chloropyrimidin-2-yl)-1-methoxy-N-(5-(6-methoxypyridin-2-yl)-4-(((S)-tetrahydrofuran-2-yl)methyl)-4H-1,2,4-triazol-3-yl)propane-2-sulfonamide]",75 nM
14,"COc1cccc(-c2nnc(NS(=O)(=O)[C@@H](C)[C@H](OC)c3ncc(Cl)cn3)n2C[C@H]2CCCO2)n1 (single isomer, unassigned) [Example 280.0, (1R,2S)-1-(5-chloropyrimidin-2-yl)-1-methoxy-N-(5-(6-methoxypyridin-2-yl)-4-(((R)-tetrahydrofuran-2-yl)methyl)-4H-1,2,4-triazol-3-yl)propane-2-sulfonamide or (1R,2S)-1-(5-chloropyrimidin-2-yl)-1-methoxy-N-(5-(6-methoxypyridin-2-yl)-4-(((S)-tetrahydrofuran-2-yl)methyl)-4H-1,2,4-triazol-3-yl)propane-2-sulfonamide]",21 nM
15,"COc1cccc(-c2nnc(NS(=O)(=O)[C@@H](C)[C@H](OC)c3ncc(Cl)cn3)n2CC2CCOC2)n1 (single isomer, unassigned) [Example 285.0, (1R,2S)-1-(5-chloropyrimidin-2-yl)-1-methoxy-N-(5-(6-methoxypyridin-2-yl)-4-(((R)-tetrahydrofuran-3-yl)methyl)-4H-1,2,4-triazol-3-yl)propane-2-sulfonamide or (1R,2S)-1-(5-chloropyrimidin-2-yl)-1-methoxy-N-(5-(6-methoxypyridin-2-yl)-4-(((S)-tetrahydrofuran-3-yl)methyl)-4H-1,2,4-triazol-3-yl)propane-2-sulfonamide]",65 nM
16,"COc1cccc(-c2nnc(NS(=O)(=O)[C@@H](C)[C@H](OC)c3ncc(Cl)cn3)n2CC2CCOC2)n1 (single isomer, unassigned) [Example 286.0, (1R,2S)-1-(5-chloropyrimidin-2-yl)-1-methoxy-N-(5-(6-methoxypyridin-2-yl)-4-(((R)-tetrahydrofuran-3-yl)methyl)-4H-1,2,4-triazol-3-yl)propane-2-sulfonamide or (1R,2S)-1-(5-chloropyrimidin-2-yl)-1-methoxy-N-(5-(6-methoxypyridin-2-yl)-4-(((S)-tetrahydrofuran-3-yl)methyl)-4H-1,2,4-triazol-3-yl)propane-2-sulfonamide]",55 nM
17,"COc1cccc(-c2nnc(NS(=O)(=O)[C@@H](C)[C@H](OC)c3ncc(Cl)cn3)n2C[C@H]2CCC(C)(C)O2)n1 (single isomer, unassigned) [Example 289.0, (1R,2S)-1-(5-chloropyrimidin-2-yl)-N-(4-(((R)-5,5-dimethyltetrahydrofuran-2-yl)methyl)-5-(6-methoxyl)yridin-2-yl)-4H-1,2,4-triazol-3-yl)-1-methoxypropane-2-sulfonamide or (1R,2S)-1-(5-chloropyrimidin-2-yl)-N-(4-(((S)-5,5-dimethyltetrahydrofuran-2-yl)methyl)-5-(6-methoxypyridin-2-yl)-4H-1,2,4-triazol-3-yl)-1-methoxypropane-2-sulfonamide]",82 nM
